The results in this text go back to patent US8278072B1, “Method for synthesis of sialylated products using reversible sialylation” (Health Research, Inc., priority 2007, dated 2012).

Holding throughout (format): biochemical
Assay [1] deals with T1, ST3Gal-II (Rattus norvegicus, UniProt Q11205).
T1 construct: purchased Calbiochem
T1 sequence (Q11205 1-350): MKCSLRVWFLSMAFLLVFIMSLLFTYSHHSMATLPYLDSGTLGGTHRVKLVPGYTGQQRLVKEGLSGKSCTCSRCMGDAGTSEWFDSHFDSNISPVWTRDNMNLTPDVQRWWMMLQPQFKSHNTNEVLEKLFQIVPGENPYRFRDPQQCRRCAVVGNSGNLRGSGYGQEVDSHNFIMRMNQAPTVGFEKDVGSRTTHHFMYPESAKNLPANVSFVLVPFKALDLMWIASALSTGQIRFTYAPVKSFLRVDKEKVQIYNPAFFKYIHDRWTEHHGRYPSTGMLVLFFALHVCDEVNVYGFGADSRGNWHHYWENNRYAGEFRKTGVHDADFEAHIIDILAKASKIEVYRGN
Kind of assay: Reverse sialylation equilibrium constant (Keq) and 5′-CMP dose dependence. The note with it: acceptor 5′-CMP. How it is done: FIG. 2. Equilibrium constant. a. Reversible sialyltransferase activity at increasing concentration of 5′-CMP. 0.15 mM of donor [9-^3H]NeuAcα2,3Galβ1,3(4-FGlcNAcβ1,6)GalNAcα-O-Bn [9-^3H[2]] was incubated with varying concentrations of 5′-CMP and 0.15 mU ST3Gal-II under conditions described in FIG. 1 for 2 hours. The consumption of the [9-^3H]NeuAc benzyl glycoside donor was measured by subjecting the incubation mixture to Sep-Pak C18 fractionation, which binds the donor and not CMP-[9-^3H]NeuAc. The reaction proceeded to ½ the maximum extent at 80 μM 5′-CMP. b. Equilibrium constant Keq (=0.35) calculated for data in panel a. c. Varying concentrations of 5′-CMP was sialylated with ST3Gal-II (2.0 mU) using either 0.15 mM (panel c) or 1.5 mM (not shown) sialyl donor [9-^3H]NeuAcα2,3Galβ1,3GalNAcβ1,3Galα-O-Me [9-^3H[3]] for 4 hours. The product CMP-[9-^3H]NeuAc and the unused [9-^3H[3]] were separated and quantitated by Dowex-1-Formate method. d. Equilibrium constant, Keq=98.9. Diamonds denote data from 1.5 mM runs while data from 0.15 mM runs are depicted by squares.
(§1) a) Biogel P2 chromatography: A Biogel P2 column (Fine Mesh; 1.0×116.0 cm) was used with 0.1 M pyridine acetate (pH5.4) as the eluent at room temperature. […] Fractions of 1.0 ml were collected. The bound material was then eluted with 0.5M GlcNAc or 0.2M Gal in the same buffer. […] Calculation of equilibrium constant, Keq: Equilibrium constant was calculated for selected reversible bimolecular reactions that are denoted by:
[formula] Here, [9-^3H]D* denotes the radiolabeled donor and D′ is the donor after removal of sialic acid. Similarly, A and [9-^3H]A* denote the acceptor before and after incorporation of NeuAc. In each run, unreacted [9-^3H]D* and product [9-^3H] A* are measured using radioactivity measurements. The equilibrium constant (Keq=kreverse/kforward, dimensionless units) are then determined using the following equation, where terms in square brackets denote concentrations:
[formula] [D0] and [A0] are initial donor and acceptor concentrations. A plot of [D*]/([D0]−[D*]) versus [A*]/([A0]−[A*]) yields Keq from slope data. Keq<1 implies that the forward reaction is favored and the reaction proceeds to the right side to form [9-^3H]A* efficiently. Liquid Chromatography Coupled with Tandem Mass Spectrometry (LC/MS/MS)
Similar results were observed upon increasing concentrations of 5′-CMP when [9-^3H]NeuAcα2,3Galβ1,3(4-FGlcNAcβ1,6) GalNAcα-O-Bn [9-^3H[2]] was donor (FIG. 2a, b). The concentration of 5′-CMP that mediated half-maximal transfer of [9-^3H]NeuAc was 80 μM. The bimolecular equilibrium constant (Keq) for this reaction was 0.35 (dimensionless units, Table I). Indeed, the Keq varied depending on the donor and it was 98.9 when the donor was based on the globo glycolipid, [9-^3H]NeuAcα2,3Galβ1,3GalNAcβ1,3 Gala-O-Me [[9-^3H] [3]] (FIG. 2c, d). Upon comparing and [3], it is apparent that reverse sialylation proceeds more effectively in the case of [2]. To further confirm the above estimates of Keq for core-2 based structures, we also calculated this parameter for our previously published data where [9-^3H]CMP-NeuAc was donor and mucin core-2 tetrasaccharide Galβ1,4GlcNAcβ1,6(Galβ1,3)GalNAcα-O-Bn was acceptor. In this case, Keq measured with respect to the rate of mucin core-2 sialylation was 5.55 (data not shown), which translates to a reverse sialylation Keq of 0.18.

The target in assay [2] is T1, ST3Gal-II. Kind of assay: Reverse sialylation: transfer of [9-3H]NeuAc from sialylated donor to nucleotide phosphates (WGA-agarose). Particulars: nucleotide phosphate 1 mM as acceptor, donor [1]. How it is done: FIG. 1. Nucleotide phosphates as acceptors of radioactivity from [9-^3H]NeuAcα2,3Galβ,13 (GlcNAcβ1,6)GalNAcα-O—Al (Al=Allyl) [[9-^3H] [1]] in the presence of ST3Gal-II (scheme-I). Reaction mixtures (RM) with the following composition were incubated at 37° C. for 21 hours in 100 mM NaCa Codylate buffer, pH6.0: i) RM containing 150 μM (0.4 μCi) [[9-^3H] [1]] (donor) along with 0.8 mU ST3Gal-II but no 5″-CMP; and, ii) RM containing [[9-^3H] [1]] and 1.0 mM 5′-CMP, along with ST3Gal-II. Products formed were fractionated on a WGA-agarose column. […] The feasibility of the reverse reaction is well established in literature. Schematic symbols: ♦:sialic acid, ●:Gal, □:GalNAc, ▪:GlcNAc.
All enzymatic sialylation reactions were typically carried out in 100 mM NaCa Codylate buffer pH6.0 in the presence of enzyme, synthetic acceptor (at 7.5 mM or as indicated in each experiment) and 0.2 μCi CMP-[9-^3H]NeuAc (NEN-Dupont, 29 mCi/μmol). The concentration of total CMP-NeuAc was adjusted in individual reactions by supplementing with additional cold CMP-NeuAc. Reaction volume was 20 μl. Products formed were separated using four different chromatography procedures (below). In all cases, the radioactive content of isolated products was determined by using 3a70 scintillation cocktail (Research Products International, Mount Prospect, Ill.), and a Beckman LS6500 scintillation counter.
as §1
Cloned and purified rat sialyltransferase α2,3(O)ST (ST3Gal-II) is used in many experiments presented in this manuscript. […] In order to determine if the sialylation reaction is reversible (FIG. 1), [9-^3H]NeuAcα2,3Galβ,13(GlcNAcβ1,6)GalNAcα-O—Al (Al=Allyl) [9-^3H[1]] was prepared using ST3Gal-II in the presence of CMP-[9-^3H]NeuAc and the trisaccharide acceptor Galβ1,3(GlcNAcβ1,6)GalNAcα-O—Al, and the radiolabeled product was isolated using Biogel P2 chromatography. […] Two different reaction mixtures were then prepared with: i) [9-^3H[1]] and ST3Gal-II but without 5″-CMP; and ii) [9-^3H[1]] and 5″-CMP along with ST3Gal-II.

The target in assay [3] is T1, ST3Gal-II. Kind of assay: Reverse sialylation by ST3Gal-II in presence of citrate or 5′-nucleotides. The note with it: 0.2 mM [3], 7 mM 5′-CMP, 3.0 mM [5], 4 hours. How it is done:
FIG. 5. Effect of 5′-nucleotides on direct sialyltransferase activity (panel a) and reverse sialylation (panel b). a. Varying concentrations of 5′-CDP or 5′-CMP were added to 100 mM acceptor (specified below), 0.15 mM CMP-[9-^3H]NeuAc and either ST3Gal-II (0.2 mU), ST3Gal-III (0.5 mU) or ST6Gal-I (0.2 mU) for 4 h at 37° C. Products were separated using Sep-Pak C18 method. ST3Gal-III activity was measured using acceptor 4-O-MeGalβ1,4GlcNAcβ-O-Bn in the presence of 5′-CDP (●) and 5′-CMP (◯). ST6Gal-I activity was measured using Gal β1,4GlcNAcβ-O-Bn in the presence of 5′-CDP (▴) and 5′-CMP (Δ). ST3Gal-II using D-Fucβ1,3GalNAcα-O-Bn in the presence of 5′-CDP (▪) and 5′-CMP (□). b) Reverse sialylation by ST3Gal-II was measured in reaction mixtures containing 0.2 mM [9-^3H] [3], 7 mM 5′-CMP, ST3Gal-II (2 mU), D-Fucβ1,3GalNAcα-OBn (3.0 mM) and varying doses of either 5′-CDP (▴), 5′-UMP (◯) or 2-deoxy 5′-CMP (●) for 4 hours at 37° C. Reaction product ([9-^3H]NeuAcα2,3DFucβ1,3 GalNAcα-O-Bn) was isolated using Sep-Pak C18 method. In some runs, where was absent, the amount of CMP-NeuAc produced was quantified using the Dowex-1 Formate method in the presence of varying doses of 5′-CDP (▪).
Besides pH other distinctions were also observed between forward and reverse sialylation. In this regard, citrate ions tended to inhibit forward sialylation but not reverse sialylation activity (Table V). For these studies, the effect of citrate on the forward sialylation activity of ST3Gal-I, ST3Gal-II, ST3Gal-III and ST6Gal-I was examined. Reverse sialylation activity of ST3Gal-II was also measured in terms of: i) the formation of CMP-NeuAc from 5′-CMP; and ii) the transfer of NeuAc from this newly synthesized CMP-NeuAc to another O-glycan. From the data (Table V), it is evident that citrate inhibits the direct sialylation activity of all the enzymes mentioned above. However, both the synthesis of CMP-[9-^3H]NeuAc from 5′-CMP as well as the synthesis of [9-^3H]NeuAcα2,3D-Fucβ1,3 GalNAcα-O-Bn using the newly formed CMP-[9-^3H]NeuAc through reverse sialylation of ST3Gal-II was not inhibited by citrate.
The effect of 5′-nucleotides on forward sialylation (FIG. 5a) and reverse sialylation (FIG. 5b) were examined. […] The overall formation of [9-^3H]NeuAcα2,3D-Fucβ1,3 GalNAcα-O-Bn by the two-step reverse sialylation process, however, was inhibited by 5′-CDP and this is consistent with the finding that 5′-CDP inhibits forward sialylation in the second step.

Regarding “[9-^3H]NeuAcα2,3Galβ1,3GalNAcβ1,3Galα-O-Me [[3]]”, the “Keq (dimensionless units), reverse sialylation equilibrium constant” value at ST3Gal-II [1] (sialylated donor) is listed as 98.9.

In the case of `Nc1ccn([C@H]2C[C@H](O)[C@@H](COP(=O)(O)O)O2)c(=O)n1` [2′ deoxy 5′-CMP], on ST3Gal-II [2], the “Incorporation of [9-3H]NeuAc expressed as percent of the CPM incorporated into 5′-CMP” value is listed as 26.3%. The “Effect on overall formation of [9-3H]NeuAcα2,3D-Fucβ1,3GalNAcα-O-Bn by two-step reverse sialylation” value at ST3Gal-II [3] is listed as “did not alter the extent of product formation”.

For the molecule `O=c1ccn([C@@H]2O[C@H](COP(=O)(O)O)[C@@H](O)[C@H]2O)c(=O)[nH]1` [5′-UMP], the “Incorporation of [9-3H]NeuAc expressed as percent of the CPM incorporated into 5′-CMP” value at ST3Gal-II [2] is listed as 55.9%. In addition, at ST3Gal-II [3], the “Effect on overall formation of [9-3H]NeuAcα2,3D-Fucβ1,3GalNAcα-O-Bn by two-step reverse sialylation” value is reported as “did not alter the extent of product formation”.

Regarding “[9-^3H]NeuAcα2,3Gal(1,3(Gal(1,4GlcNAc(1,6)GalNAc(-O-Bn”, on ST3Gal-II [1] (translated from Keq 5.55 of mucin core-2 sialylation, previously published data), the “Keq (dimensionless units), reverse sialylation equilibrium constant” value is on record as 0.18.
